How the values were obtained:
DIO rats = assay: DIO rat weight loss assay; format: in vivo; conditions: for Absolute body weight Day 21: mean ± SEM; for reduction in body weight relative to baseline: 21 days, n = 8/group
Procedure: The ability of NN1213 to reduce body weight was tested in DIO rats fed an HFD. Rats were dosed once daily sc with either vehicle or NN1213 (n = 8–10 per group). Food intake and body weight were measured daily on individually housed rats. […] Body fat and lean mass are expressed as changes from baseline.
VetXX, Specific CCD, Dechra, UK).
eaten within 30 min. […] In figure 4, mean accumulated food
rats were assessed in DIO rats.
controlled temperature conditions (22 °C).
Pharmacokinetic Evaluation.
Species n administration (nmol/kg) (h)

hAMY1R [1] = molecular target: T1, hAMY1R (Homo sapiens, UniProt O60894+P30988); assay: Species-specific cAMP assay, hAMY1R; conditions: ratio of cAMP EC50 values, human receptors
rAMY3R = molecular target: T2, rAMY3R (Rattus norvegicus, UniProt P32214+Q9JJ73); assay: Species-specific cAMP assay, rAMY3R; conditions: ratio of cAMP EC50 values, rat receptors
T2 sequence (P32214 25-479 isoform P32214-2 limits assumed): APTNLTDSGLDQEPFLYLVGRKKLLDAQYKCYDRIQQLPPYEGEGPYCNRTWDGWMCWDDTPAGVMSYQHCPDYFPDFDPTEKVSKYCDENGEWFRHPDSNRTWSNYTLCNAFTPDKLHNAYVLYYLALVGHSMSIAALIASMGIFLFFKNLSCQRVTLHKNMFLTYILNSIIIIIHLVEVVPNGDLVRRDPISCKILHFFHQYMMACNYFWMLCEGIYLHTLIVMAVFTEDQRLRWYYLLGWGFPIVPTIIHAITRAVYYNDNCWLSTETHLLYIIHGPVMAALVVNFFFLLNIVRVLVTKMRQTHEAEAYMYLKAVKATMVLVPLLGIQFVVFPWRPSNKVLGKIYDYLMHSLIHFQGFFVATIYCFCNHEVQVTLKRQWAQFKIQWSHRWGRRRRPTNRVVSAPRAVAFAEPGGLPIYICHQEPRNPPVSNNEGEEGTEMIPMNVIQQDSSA
T2 sequence (Q9JJ73 23-147 partner): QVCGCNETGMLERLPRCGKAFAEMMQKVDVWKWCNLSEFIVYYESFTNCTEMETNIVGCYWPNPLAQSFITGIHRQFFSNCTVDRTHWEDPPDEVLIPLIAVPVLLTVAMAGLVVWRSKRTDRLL

in vivo = conditions: male, Göttingen, minipig, iv
beagle dogs = assay: Acute dog food intake assay
hAMY1R [2] = molecular target: T1, hAMY1R; assay: Whole-cell competition binding, hAMY1R; parameters: expressed in transfected cells; host or cells: BHK tk-ts 13, transient co-transfection (FuGENE 6); conditions: IC50 for the CTR divided by that of the AMYR, human receptors

T1 sequence (P30988 25-474): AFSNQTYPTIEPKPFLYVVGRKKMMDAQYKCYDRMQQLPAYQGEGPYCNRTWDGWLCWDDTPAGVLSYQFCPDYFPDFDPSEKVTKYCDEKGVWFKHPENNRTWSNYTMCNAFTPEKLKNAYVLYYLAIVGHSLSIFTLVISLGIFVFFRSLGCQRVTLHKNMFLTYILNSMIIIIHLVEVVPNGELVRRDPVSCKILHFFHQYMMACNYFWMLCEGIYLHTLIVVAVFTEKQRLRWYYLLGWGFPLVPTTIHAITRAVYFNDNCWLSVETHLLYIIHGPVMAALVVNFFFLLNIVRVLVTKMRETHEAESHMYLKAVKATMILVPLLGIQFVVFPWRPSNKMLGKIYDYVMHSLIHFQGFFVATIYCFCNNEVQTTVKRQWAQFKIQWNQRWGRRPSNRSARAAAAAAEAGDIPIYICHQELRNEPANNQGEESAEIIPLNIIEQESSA
T1 sequence (O60894 27-148 partner): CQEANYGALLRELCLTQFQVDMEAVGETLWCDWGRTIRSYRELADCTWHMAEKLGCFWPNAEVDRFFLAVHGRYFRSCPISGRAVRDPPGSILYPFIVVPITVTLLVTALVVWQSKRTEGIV

For `CC[C@H](C)[C@H](NC(=O)[C@H](C)NC(=O)CNC(=O)[C@H](Cc1ccccc1)NC(=O)[C@H](CC(N)=O)NC(=O)[C@@H]1CCCN1C(=O)[C@H](CO)NC(=O)[C@H](CO)NC(=O)[C@H](Cc1c[nH]cn1)NC(=O)[C@H](CCCNC(=N)N)NC(=O)[C@H](CC(C)C)NC(=O)[C@H](Cc1ccccc1)NC(=O)[C@H](CC(=O)O)NC(=O)[C@H](C)NC(=O)[C@H](CC(C)C)NC(=O)[C@H](CCCNC(=N)N)NC(=O)[C@H](CCC(N)=O)NC(=O)[C@@H](NC(=O)[C@H](C)NC(=O)[C@@H]1CSSC[C@H](NC(=O)[C@@H](N)CCCCNC(=O)CC[C@H](NC(=O)CC[C@H](NC(=O)CCCCCCCCCCCCCCCCCCC(=O)O)C(=O)O)C(=O)O)C(=O)N[C@@H](CC(N)=O)C(=O)N[C@@H]([C@@H](C)O)C(=O)N[C@@H](C)C(=O)N[C@@H]([C@@H](C)O)C(=O)N1)[C@@H](C)O)C(=O)N1CCC[C@H]1C(=O)N[C@@H](CO)C(=O)N[C@@H](CO)C(=O)N[C@H](C(=O)N[C@@H](CC(N)=O)C(=O)N[C@H](C(=O)NCC(=O)N[C@@H](CO)C(=O)N[C@@H](CCCNC(=N)N)C(=O)N[C@H](C(=O)N[C@@H](Cc1ccc(O)cc1)C(N)=O)[C@@H](C)O)C(C)C)[C@@H](C)O` [NN1213], the “Absolute body weight Day 21” value (DIO rats; 3 µg/kg (0.7 nmol/kg) sc once daily) was 705.5 ± 38.4 g, the “Absolute body weight Day 21” value (DIO rats; 10 µg/kg (2.2 nmol/kg) sc once daily) was 664.4 ± 19.3 g and the “Absolute body weight Day 21” value (DIO rats; 30 µg/kg (6.6 nmol/kg) sc once daily) was 682.4 ± 27.7 g. For the same compound, the “Absolute body weight Day 21” value (DIO rats; 100 µg/kg (22 nmol/kg) sc once daily) was 667.8 ± 11.9 g, the “body weight lost after 21 days” value (DIO rats; high-dose group (22 nmol/kg) sc once daily) was 69.6 ± 7.5 g and the “body weight lost after 21 days” value (DIO rats; low-dose group 0.7 nmol/kg sc once daily) was 32.0 ± 3.6 g. The “reduction in body weight relative to baseline” value (DIO rats; sc once daily 0.7 nmol/kg) was 4.7%, the “reduction in body weight relative to baseline” value (DIO rats; sc once daily 2.2, 6.6, 22 nmol/kg doses) was 8.7–9.3% and the “Ratio CTR/AMY1R (human, functional)” value (hAMY1R [1]) was 32. The “Ratio CTR/AMY3R (rat, functional)” value (rAMY3R) was 144, the half-life (in vivo) was 116 h and the “food intake reduction, first 48 h” value (beagle dogs; single sc administration 300 nmol/kg, four meals over 48 h) was 90%. For the same compound, the effect on appetite (beagle dogs; single sc dose 3 nmol/kg) was “did not affect appetite”, the “duration of appetite suppression” value (beagle dogs; single sc dose 30 nmol/kg) was “at least 7 days” and the “tolerability (discomfort, vomiting)” value (beagle dogs; single sc dose ranging from 3 to 300 nmol/kg) was “not associated with any signs of discomfort in the dogs and no vomiting”. For the same compound, the “Ratio CTR/AMY1R (human, binding)” value (hAMY1R [2]) was 120.

Source: publication PMC11284788, “NN1213 – A Potent, Long-Acting, and Selective Analog of Human Amylin” (Journal of Medicinal Chemistry, 2024)
